Assays:
PfuTIM [1] = biological target: T1, PfuTIM (Pyrococcus furiosus, UniProt P62002); assay: resorufin release, absorbance at […] nm; assay type: biochemical; conditions: pH 6.0, 35 °C; phosphate-purified enzyme 2 μM; substrate 2.5-250 μM; promiscuous endoglucanase activity, second site
T1 construct: gene tpiA; full-length, 6xHis tag from pQE30 (BamHI/HindIII), tag kept; E. coli M15[pREP4]; IMAC and gel filtration; monomer ~25 kDa; octamer in Tris, hexamer in phosphate

PfuTIM [2] = biological target: T2, PfuTIM (Pyrococcus furiosus, UniProt P62002, E144G); assay: resorufin release, absorbance at […] nm; assay type: biochemical; conditions: 37 °C, overnight incubation
T2 construct: gene tpiA; full-length, 6xHis tag from pQE30 (BamHI/HindIII), tag kept; E. coli M15[pREP4]; IMAC and gel filtration; monomer ~25 kDa; octamer in Tris, hexamer in phosphate
T2 sequence (P62002 whole entry E144G): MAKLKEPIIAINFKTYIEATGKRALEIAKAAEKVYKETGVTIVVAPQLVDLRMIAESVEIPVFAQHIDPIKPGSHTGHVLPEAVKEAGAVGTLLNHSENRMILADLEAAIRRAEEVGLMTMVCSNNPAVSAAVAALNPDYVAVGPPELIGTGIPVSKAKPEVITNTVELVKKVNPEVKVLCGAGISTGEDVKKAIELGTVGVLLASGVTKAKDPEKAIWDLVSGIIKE

PfuTIM [3] = biological target: T1, PfuTIM; assay: inhibition of cellobioside-resorufin hydrolysis, absorbance at […] nm; assay type: biochemical; conditions: enzyme 2 μM; cellobioside-resorufin 100 μM; norharman 25 μM; endoglucanase activity; headed as competitive
PfuTIM [4] = biological target: T1, PfuTIM; assay: intrinsic tryptophan fluorescence quenching, hyperbolic fit; assay type: binding

T1 sequence (P62002 whole entry): as the sequence (P62002 whole entry E144G) above, with G144E counted along it

SMILES | Km (PfuTIM [1]) | % of wild-type activity (PfuTIM [2]) | complete inhibition at 25 μM (PfuTIM [3]) | Kd (PfuTIM [4]) [µM]
O=c1ccc2nc3ccc(O[C@@H]4O[C@H](CO)[C@@H](O[C@@H]5O[C@H](CO)[C@@H](O)[C@H](O)[C@H]5O)[C@H](O)[C@H]4O)cc3oc-2c1 [cellobioside–resorufin] | ~ 53.62 ± 4.05 μM | percentages of activity with respect to the wild‐type protein are plotted, for assays with cellobioside–resorufin |  | 
c1ccc2c(c1)[nH]c1cnccc12 [norharman] |  |  | With norharman, complete inhibition of endoglucanase/cellulase activity is seen | ~83

Reference: publication PMC5537068, “Endoglucanase activity at a second site in Pyrococcus furiosus triosephosphate isomerase—Promiscuity or compensation for a metabolic handicap?” (FEBS Open Bio, 2017)
